Test results: ChEMBL document CHEMBL3301562, “MMV Box screening against Plasmodium falciparum protein kinases and aminoacyl tRNA synthetases”

Tests used:
Assay type in all cases: functional
Lysine--tRNA ligase = Lysine--tRNA ligase (Plasmodium falciparum (isolate 3D7), UniProt Q8IDJ8); test: MMV: KRS recombinant Plasmodium falciparum Lysyl-tRNA-synthetase, assay with yeast tRNA, ATP, and lysine and 3 uM MMV malaria box compound, assay read out with kinase glo as % inhibition.
[1] = molecular target: T1, Cdk-related protein kinase 6 (Plasmodium falciparum, UniProt O77239); test: Final concentrations were 1.5 uM ATP, 5 mM MnCl2, and 15 ug/ml PK6 in a buffer of 100 mM Tris-HCl (pH 7.5). 50 ug/mL MBP was provided as the substrate; 10 uM staurosporine was used as a control inhibitor. Incubation time was 3 hours and 40 minutes.The catalytic activity of each kinase was considered proportional to ATP consumed, as determined from measurements of residual [ATP] with the luciferase-based reagent Kinase-Glo (Promega) following incubation. Luminescence (proportional to residual [ATP]) was measured on the plate readers FLx800 (BioTek Instruments, Winooski, VT, USA) and MicroBeta2.
T1 sequence (O77239 whole entry): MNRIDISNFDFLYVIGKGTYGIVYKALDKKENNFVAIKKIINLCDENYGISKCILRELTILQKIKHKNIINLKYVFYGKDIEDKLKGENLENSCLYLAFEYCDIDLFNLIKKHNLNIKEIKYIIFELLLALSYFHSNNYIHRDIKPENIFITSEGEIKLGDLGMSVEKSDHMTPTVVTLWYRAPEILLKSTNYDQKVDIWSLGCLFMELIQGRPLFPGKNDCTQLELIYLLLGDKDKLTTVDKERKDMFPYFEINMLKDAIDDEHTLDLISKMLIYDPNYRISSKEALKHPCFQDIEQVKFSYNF

Proline--tRNA ligase = molecular target: T2, Proline--tRNA ligase (Plasmodium falciparum (isolate 3D7), UniProt Q8I5R7); test: MMV: ProRS recombinant Plasmodium falciparum Prolyl-tRNA-synthetase, assay with yeast tRNA, ATP, and proline and 3 uM MMV malaria box compound, assay read out with kinase glo as % inhibition.
T2 sequence (Q8I5R7 whole entry): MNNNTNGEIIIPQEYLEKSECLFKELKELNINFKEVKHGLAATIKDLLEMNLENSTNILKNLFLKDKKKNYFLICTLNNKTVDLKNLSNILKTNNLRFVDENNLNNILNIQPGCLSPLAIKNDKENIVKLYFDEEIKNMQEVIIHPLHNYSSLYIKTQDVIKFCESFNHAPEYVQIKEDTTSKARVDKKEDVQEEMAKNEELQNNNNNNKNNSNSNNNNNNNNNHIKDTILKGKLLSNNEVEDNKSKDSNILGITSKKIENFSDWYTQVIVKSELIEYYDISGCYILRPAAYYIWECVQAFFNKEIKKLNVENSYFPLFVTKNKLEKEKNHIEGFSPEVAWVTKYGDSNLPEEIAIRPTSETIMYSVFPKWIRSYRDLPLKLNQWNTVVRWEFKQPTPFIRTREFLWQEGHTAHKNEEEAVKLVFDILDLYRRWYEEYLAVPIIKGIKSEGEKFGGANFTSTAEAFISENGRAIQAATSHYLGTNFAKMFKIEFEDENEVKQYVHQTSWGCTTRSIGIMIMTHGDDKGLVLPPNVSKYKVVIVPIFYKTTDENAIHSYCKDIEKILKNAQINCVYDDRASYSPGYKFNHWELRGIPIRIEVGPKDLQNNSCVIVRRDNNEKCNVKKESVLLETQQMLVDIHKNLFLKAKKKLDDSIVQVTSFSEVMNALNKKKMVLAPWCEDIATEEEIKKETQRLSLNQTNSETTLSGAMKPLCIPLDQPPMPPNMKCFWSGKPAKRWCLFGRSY

[2] = molecular target: T3, Mitogen-activated protein kinase (Plasmodium falciparum, UniProt Q25917); test: Final concentrations were 1 uM ATP, 0.5 mM DTT, 1 mM MgCl2, 0.5 mg/mL BSA, and 10 ug/ml MAP2 in a buffer of 50 mM HEPES (pH 7.0). 0.5 mg/mL histone III-S served as the substrate (13); 100 uM AMP-PNP, an ATP analog, was used as a control inhibitor. Incubation time was 4 hours.
T3 sequence (Q25917 whole entry): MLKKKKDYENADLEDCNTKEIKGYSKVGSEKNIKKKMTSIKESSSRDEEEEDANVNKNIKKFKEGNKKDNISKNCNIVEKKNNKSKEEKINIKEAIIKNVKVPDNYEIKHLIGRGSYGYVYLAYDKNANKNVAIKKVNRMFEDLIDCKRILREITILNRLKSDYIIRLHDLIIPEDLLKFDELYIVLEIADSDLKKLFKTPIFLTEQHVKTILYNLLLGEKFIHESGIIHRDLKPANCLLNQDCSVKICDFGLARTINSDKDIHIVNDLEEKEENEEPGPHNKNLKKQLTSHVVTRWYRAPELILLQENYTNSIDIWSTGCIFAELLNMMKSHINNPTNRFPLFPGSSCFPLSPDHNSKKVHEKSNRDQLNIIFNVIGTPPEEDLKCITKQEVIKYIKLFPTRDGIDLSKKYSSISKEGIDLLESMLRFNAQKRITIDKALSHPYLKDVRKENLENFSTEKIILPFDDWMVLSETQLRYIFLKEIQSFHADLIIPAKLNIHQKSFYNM

[3] = molecular target: T4, Calcium-dependent protein kinase 4 (Plasmodium falciparum (isolate 3D7), UniProt Q8IBS5); test: MMV: CDPK4 Protein kinase inhibition assay using recombinant PfCDPK4, syntide2 peptide substrate, ATP and KinaseGlo to measure % inhibition at 1 uM MMV box compound.
T4 sequence (Q8IBS5 whole entry): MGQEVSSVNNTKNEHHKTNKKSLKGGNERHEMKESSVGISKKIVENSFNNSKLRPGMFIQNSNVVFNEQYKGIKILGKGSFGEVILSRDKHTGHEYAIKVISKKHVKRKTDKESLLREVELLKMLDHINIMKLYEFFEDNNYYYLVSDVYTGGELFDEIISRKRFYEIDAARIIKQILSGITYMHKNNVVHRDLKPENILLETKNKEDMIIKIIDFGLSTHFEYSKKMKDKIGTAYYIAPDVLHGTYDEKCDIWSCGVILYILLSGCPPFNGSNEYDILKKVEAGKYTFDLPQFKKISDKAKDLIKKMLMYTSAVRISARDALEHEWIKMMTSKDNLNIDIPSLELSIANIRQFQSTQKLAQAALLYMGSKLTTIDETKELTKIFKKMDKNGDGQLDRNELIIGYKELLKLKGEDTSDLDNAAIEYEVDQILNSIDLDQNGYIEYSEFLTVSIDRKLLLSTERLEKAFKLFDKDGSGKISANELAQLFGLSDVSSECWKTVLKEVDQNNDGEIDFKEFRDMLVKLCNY

[4] = molecular target: Calcium-dependent protein kinase 1 (Plasmodium falciparum, UniProt P62344); test: MMV: CDPK1 Protein kinase inhibition assay using recombinant PfCDPK1, syntide 2 peptide substrate, ATP and KinaseGlo to measure % inhibition at 1 uM MMV box compound.
Chain of Calcium-dependent protein kinase 1 (P62344 whole entry): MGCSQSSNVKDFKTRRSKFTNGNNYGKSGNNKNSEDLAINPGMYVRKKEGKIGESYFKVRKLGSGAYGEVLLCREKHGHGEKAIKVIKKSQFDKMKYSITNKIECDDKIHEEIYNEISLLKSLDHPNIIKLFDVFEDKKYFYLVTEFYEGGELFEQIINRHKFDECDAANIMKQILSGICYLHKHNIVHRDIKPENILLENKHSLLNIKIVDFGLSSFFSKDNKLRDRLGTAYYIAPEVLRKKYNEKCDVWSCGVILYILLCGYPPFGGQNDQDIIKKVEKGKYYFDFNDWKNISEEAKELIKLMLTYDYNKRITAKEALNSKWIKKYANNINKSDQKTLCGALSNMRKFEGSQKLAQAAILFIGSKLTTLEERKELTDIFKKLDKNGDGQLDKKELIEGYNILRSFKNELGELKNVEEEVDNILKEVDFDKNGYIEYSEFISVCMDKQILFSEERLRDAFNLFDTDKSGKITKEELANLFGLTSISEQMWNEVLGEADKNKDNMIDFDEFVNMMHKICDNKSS

[5] = molecular target: T5, Putative uncharacterized protein pk7 (Plasmodium falciparum, UniProt O96214); test: Final concentrations were 1 uM ATP, 2 mM DTT, 20 mM MgCl2, 2 mM MnCl2, 0.01% BSA, and 6 ug/ml PK7, in a buffer of 20 mM Tris-HCl (pH 7.5). The enzyme itself was the only substrate present (since autophosphorylation occurs); 100 uM 1NA-PP1 was used as a control inhibitor. Incubation time was 3 hours.
T5 sequence (O96214 whole entry): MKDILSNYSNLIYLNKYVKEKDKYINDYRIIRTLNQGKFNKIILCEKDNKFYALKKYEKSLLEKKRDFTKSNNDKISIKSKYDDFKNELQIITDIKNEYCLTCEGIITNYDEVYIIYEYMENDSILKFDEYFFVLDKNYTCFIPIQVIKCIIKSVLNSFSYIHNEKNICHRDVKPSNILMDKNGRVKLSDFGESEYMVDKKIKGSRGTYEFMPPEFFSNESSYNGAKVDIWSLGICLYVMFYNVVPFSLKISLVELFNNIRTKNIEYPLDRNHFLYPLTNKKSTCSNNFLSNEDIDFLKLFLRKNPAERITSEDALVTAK

Chain of Lysine--tRNA ligase (Q8IDJ8 whole entry): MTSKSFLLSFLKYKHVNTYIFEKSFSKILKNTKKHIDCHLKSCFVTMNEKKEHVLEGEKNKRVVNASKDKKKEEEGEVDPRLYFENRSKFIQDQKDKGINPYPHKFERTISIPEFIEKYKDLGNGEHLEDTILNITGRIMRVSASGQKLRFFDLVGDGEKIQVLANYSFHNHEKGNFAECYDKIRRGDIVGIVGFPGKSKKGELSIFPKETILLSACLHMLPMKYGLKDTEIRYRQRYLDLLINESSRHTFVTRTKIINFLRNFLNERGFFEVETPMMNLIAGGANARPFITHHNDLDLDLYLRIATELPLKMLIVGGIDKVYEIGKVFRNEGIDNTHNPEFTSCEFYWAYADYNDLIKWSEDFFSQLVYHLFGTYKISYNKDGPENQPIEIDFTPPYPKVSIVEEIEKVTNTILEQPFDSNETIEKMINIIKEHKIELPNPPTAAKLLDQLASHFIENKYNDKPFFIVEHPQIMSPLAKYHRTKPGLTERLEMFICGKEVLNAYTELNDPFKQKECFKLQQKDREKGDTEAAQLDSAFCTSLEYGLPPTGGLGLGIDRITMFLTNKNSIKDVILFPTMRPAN

Compound | IC50 (Lysine--tRNA ligase) [nM] | IC50 [1] [nM] | IC50 (Proline--tRNA ligase) [nM] | IC50 [2] [nM] | IC50 [3] [nM] | IC50 [4] [nM] | IC50 [5] [nM]
COc1ccc2c(c1)C1(Nc3ccccc3-c3nc4ccccc4n31)C(=O)N2 (configuration not stated) | > 2500 | > 1000 | > 2500 | > 1000 | > 1000 | > 1000 | > 1000
CCOc1c(Cl)cc(CNCC(O)c2ccccc2)cc1OC (configuration not stated) | > 2500 | > 1000 | > 2500 | > 1000 | > 1000 | > 1000 | > 1000
COc1ccc2nc(C)cc(Nc3ccccc3O)c2c1 | > 2500 | > 1000 | > 2500 | > 1000 | > 1000 | > 1000 | > 1000
CC1(c2ccccc2)Nc2ccccc2-c2nc3ccccc3n21 (configuration not stated) | > 2500 | > 1000 | > 2500 | > 1000 | > 1000 | > 1000 | > 1000
O=C(Nc1ccc(Br)cc1)Nc1cccc(Cl)c1 | > 2500 | > 1000 | > 2500 | > 1000 | > 1000 | > 1000 | > 1000
COc1ccc2nc(C)cc(Nc3ccc(Cl)cc3)c2c1 | > 2500 | > 1000 | > 2500 | > 1000 | > 1000 | > 1000 | > 1000
CCC(O)c1ccc(Br)cc1NC(=O)c1cccc(Cl)c1 (configuration not stated) | > 2500 | > 1000 | > 2500 | > 1000 | > 1000 | > 1000 | > 1000
Cc1cc(Nc2cccc(F)c2)nc(NCc2ccccc2)n1 | > 2500 | > 1000 | > 2500 | > 1000 | > 1000 | > 1000 | > 1000
COCCn1c(C)nc2ccccc2c1=O | > 2500 | > 1000 | > 2500 | > 1000 | > 1000 | > 1000 | > 1000
O=C(Nc1cccc(-c2nc3ccccc3[nH]2)c1)c1cccc(NC(=O)c2ccco2)c1 | > 2500 | > 1000 | > 2500 | > 1000 | > 1000 | > 1000 | > 1000
O=C(NC1CCN(Cc2ccccc2)CC1)c1cc(-c2cccnc2)nc2ccc(Cl)cc12 | > 2500 | > 1000 | > 2500 | > 1000 | > 1000 | > 1000 | > 1000
